This is an account of results in patent publication US4533554A, “Quinone derivatives and use” (Takeda Chemical Industries, Ltd., priority 1979, dated 1985).

In test [1] the test system is SRS-A (slow reacting substance of anaphylaxis) production and release. The test is described as follows: Inhibitory effect on SRS-A (slow reacting substance of anaphylaxis) production and release in sensitised guinea-pig lung fragments. To be noted: guinea-pig lung fragments sensitised with egg albumin. The test is classed as cell-based. The procedure: The inhibitory effect on SRS-A production and release was examined by the method of Orange and Moore (J. Immunol., 116, 392-397, 1976). Quinone derivatives were added to guinea-pig lung fragments sensitised with egg albumin as the antigen, and the amount of SRS-A produced and released as a consequence was assayed by the method of Brocklehust (J. Physiol., 151, 416-435, 1960).

In test [2] the test system is mortal activity of arachidonic acid in mouse. The test can be described thus: Suppression of mortal activity of arachidonic acid in mouse. As to conditions: 300 mg/kg oral, 1 hour before arachidonic acid 60 mg/kg i.v., male JCL:ICR mice, read-out: Number of survival mice/Total number of mice (converted). The test is classed as in vivo. The procedure: Male mice (four weeks old, JCL:ICR) were used in this experimental. Quinone derivatives were suspended with arabin to administrate per OS. After one hour of the oral administration at a dose of 300 mg/kg of a quinone derivative, an aqueous solution of arachidonic acid (20 mg/ml, pH 8.8) was intravenously administrated at dose of 60 mg/kg of arachidonic acid from mouse tail vein. The suppressive effects were shown in Table 10 by the ratio of the number of survival mice to the total number of mice administrated the test compound.

For test [3], the system named is SHR (spontaneously hypertensive rats). The test is described as follows: Blood-pressure reducing action in SHR (spontaneously hypertensive rats). The test is classed as in vivo, rat. As to conditions: oral, L-methyldopa 40 mg/kg, test compound equimolar amount. As to the method:
The blood-pressure reducing action of the compounds obtained in the above-mentioned Examples was confirmed with the use of SHR (spontaneously hypertensive rats) in accordance with the method of Watson and Ludden (L. S. Watson & C. T. Ludden in "New Antihypertensive Drugs", A. Scriabin and C. S. Sweet, Ed., Spectrum Publications, New York, 1976, page 87). As a control compound, L-methyldopa was orally administered in a dose of 40 mg/kg, while an equimolar amount of a test compound was orally given, to examine the effect. Results are shown in Table 8, where the marks, (+++), (++), (+) and (±), indicate the blood-pressure reducing actions of 31 to 40 mmHg, 21 to 30 mmHg, 11 to 20 mmHg and not more than 10 mmHg, respectively.

For orientation: inhibition means the percentage by which the read-out fell short of the control. On to `NC1=NN(c2cccc(C(F)(F)F)c2)CC1` [BW-755c, reference compound], for which, in test [1] (Cavia porcellus, 10 μM), the inhibition at 10 µM worked out at 4.7 ± 3.7%. Further, in test [1] (Cavia porcellus, 100 μM), the inhibition at 100 µM was determined as 15.3 ± 4.3%. `CC1=C(C/C=C(\C)CC/C=C(\C)CCC(=O)O)C(=O)c2ccccc2C1=O` [IIa-3]: the inhibition at 10 µM in test [1] (Cavia porcellus, 10 μM) was found to be 38.6 ± 4.3%. The responders at 300 mg/kg in test [2] is 40%. Further, the Blood-pressure reducing action entry in test [3] is “+++ (31 to 40 mmHg)”. With `CC1=C(C/C=C(\C)CC/C=C(\C)CC/C=C(\C)CCC(=O)O)C(=O)c2ccccc2C1=O` [IIa-4], in test [1] (Cavia porcellus), the inhibition at 1 µM was found to be 24.3 ± 4.2%. In test [3], the Blood-pressure reducing action entry is recorded as “+++ (31 to 40 mmHg)”.

Take `CC1=C(C/C=C(\C)CC/C=C(\C)CC/C=C(\C)CC/C=C(\C)CCC(=O)O)C(=O)c2ccccc2C1=O` [IIa-5]: the Blood-pressure reducing action entry in test [3] was “+++ (31 to 40 mmHg)”. `CC1=C(C)C(=O)C(C/C=C(\C)CC/C=C(\C)CCC(=O)O)=C(C)C1=O` [IIa-7]: the inhibition at 10 µM in test [1] (Cavia porcellus, 10 μM) turned out to be 40.2 ± 7.3%. Regarding `CC1=C(C)C(=O)C(C/C=C(\C)CC/C=C(\C)CC/C=C(\C)CC/C=C(\C)CCC(=O)O)=C(C)C1=O` [IIa-9], the Blood-pressure reducing action entry in test [3] is reported as “++ (21 to 30 mmHg)”. Regarding `COC1=C(OC)C(=O)C(C/C=C(\C)CC/C=C(\C)CCC(=O)O)=C(C)C1=O` [IIa-10], the inhibition at 1 µM in test [1] (Cavia porcellus) amounted to 35 ± 6.3%. Turning to `COC1=C(OC)C(=O)C(C/C=C(\C)CC/C=C(\C)CC/C=C(\C)CCC(=O)O)=C(C)C1=O` [IIa-12], the inhibition at 1 µM in test [1] (Cavia porcellus) is 21.8 ± 8.5%. In addition, the Blood-pressure reducing action entry in test [3] was “++ (21 to 30 mmHg)”. As for `COC1=C(OC)C(=O)C(C/C=C(\C)CC/C=C(\C)CC/C=C(\C)CC/C=C(\C)CCC(=O)O)=C(C)C1=O` [IIa-13], in test [3], the Blood-pressure reducing action entry is on record as “++ (21 to 30 mmHg)”. On to `COC1=C(OC)C(=O)C(C/C=C(\C)CC/C=C(\C)CC/C=C(\C)CC/C=C(\C)CC/C=C(\C)CC/C=C(\C)CC/C=C(\C)CCC(=O)O)=C(C)C1=O` [IIa-14], for which, in test [3], the Blood-pressure reducing action entry is “++ (21 to 30 mmHg)”.

For `COC1=C(OC)C(=O)C(C/C=C(\C)CC/C=C(\C)CC/C=C(\C)CC/C=C(\C)CC/C=C(\C)CC/C=C(\C)CC/C=C(\C)CC/C=C(\C)CC/C=C(\C)CC/C=C(\C)CCC(=O)O)=C(C)C1=O` [IIa-15], in test [3], the Blood-pressure reducing action result was “++ (21 to 30 mmHg)”. On the same count and under the same terms, the result for `COC1=C(OC)C(=O)C(C/C=C(\C)CC/C=C(\C)CCC(=O)OC/C=C(\C)CC/C=C(\C)CCC=C(C)C)=C(C)C1=O` [IIa-16] reads “++ (21 to 30 mmHg)”; that for `COC1=C(OC)C(=O)C(C/C=C(\C)CC/C=C(\C)CCC(=O)OC/C=C(\C)CCC=C(C)C)=C(C)C1=O` [IIa-19], “++ (21 to 30 mmHg)”. Turning to `CC(C)=CCC/C(C)=C/COC(=O)CC/C(C)=C/CC/C(C)=C/CC1=C(C)C(=O)c2ccccc2C1=O` [IIa-20], the Blood-pressure reducing action result in test [3] is “++ (21 to 30 mmHg)”. With `CC(C)=CCC/C(C)=C/CC/C(C)=C/COC(=O)CC/C(C)=C/CC/C(C)=C/CC1=C(C)C(=O)c2ccccc2C1=O` [IIa-21], the Blood-pressure reducing action result in test [3] is “++ (21 to 30 mmHg)”. For `COC1=C(OC)C(=O)C(C/C=C(\C)CCC(=O)N2CCN(C/C=C(\C)CC/C=C(\C)CCC=C(C)C)CC2)=C(C)C1=O` [Ia-3], in test [2], the responders at 300 mg/kg was 40%.

`COC1=C(OC)C(=O)C(C/C=C(\C)CC/C=C(\C)CCC(=O)N2CCN(Cc3cc(OC)c(OC)c(OC)c3)CC2)=C(C)C1=O` [Ia-6]: the inhibition at 1 µM in test [1] (Cavia porcellus) is 26.8 ± 2.2%. In addition, the responders at 300 mg/kg in test [2] is 40%.

Regarding `COC1=C(OC)C(=O)C(C/C=C(\C)CC/C=C(\C)CCC(N)=O)=C(C)C1=O` [Ia-7], the responders at 300 mg/kg in test [2] was 40%. With `COC1=C(OC)C(=O)C(C/C=C(\C)CC/C=C(\C)CCC(=O)N2CCOCC2)=C(C)C1=O` [Ia-9], the responders at 300 mg/kg in test [2] was 40%. `COC1=C(OC)C(=O)C(C/C=C(\C)CC/C=C(\C)CC/C=C(\C)CCC(=O)N2CCN(Cc3ccc4c(c3)OCO4)CC2)=C(C)C1=O` [Ia-11]: the inhibition at 1 µM in test [1] (Cavia porcellus) turned out to be 15 ± 5.6%. The responders at 300 mg/kg in test [2] is 80%. With `COc1cc(CN2CCN(C(=O)CC/C(C)=C/CC/C(C)=C/CC/C(C)=C/CC3=C(C)C(=O)c4ccccc4C3=O)CC2)cc(OC)c1OC` [Ia-28], in test [2], the responders at 300 mg/kg is 100%. The same measure, in the same setting: then `COC1=C(OC)C(=O)C(C/C=C(\C)CC/C=C(\C)CCC(=O)N(C(=O)NC2CCCCC2)C2CCCCC2)=C(C)C1=O` [Ia-48], with 40%. With `C[C@](N)(Cc1ccc(O)c(O)c1)C(=O)O` [L-Methyldopa, reference compound], the Blood-pressure reducing action entry in test [3] is “+++ (31 to 40 mmHg)”. In the case of “Sodium baikalein phosphate [BSP, reference compound]”, the “Inhibitory Effect on SRS-A Production (% inhibition of production and release)” value is reported as 18.7 ± 6.6% in test [1] (10 μM) and 50.8 ± 10.7% in test [1] (100 μM).
